Data: patent US7825146B2, “Sulfonamide derivative having isoxazole ring” (Shionogi & Co., Ltd., priority 2003, dated 2010)

Tests used:
Format in all cases: biochemical
MMP-13 = biological target: T1, MMP-13 (Homo sapiens, UniProt P45452); assay: Assay for inhibitory activities on MMPs (fluorogenic MOCAc peptide substrate): MMP-13; conditions: Table 40
T1 construct: catalytic domain (^104Tyr˜^267Gly) was amplified with RT-PCR; His-tag; enterokinase digestion-site; made in house
Description: (§1) In regard to MMP-13, mRNA was prepared from carcinoma cell SW1353 derived from human cartilage stimulate by IL-1, TNF and catalytic domain (^104Tyr˜^267Gly) was amplified with RT-PCR. This was cloned in Escherichia. coli expression vector pTrc99AHE inserted with His-tag sequence and enterokinase digestion-site, induced and expressed by IPTG (Isopropyl-β-D-thiogalactopyranoside) and expressed in a insoluble fraction. Isolation of MMP-13 from an insoluble fraction was carried out by dissolving in modifier (6M urea) by a usual method and purification with metal chelate chromatography (Ni Chelateing Sepharose). And then removing modifier (6M urea) with dialyze and refolding of the enzyme spontaneously gave activated MMP-13.
(§2) The enzymatic activity on MMPs was analyzed by the method described in “C. Graham Knight, Frances Willenbrock and Gillian Murphy: A novel coumarin-labelled peptide for sensitive continuous assays of the matrix metalloproteinases: FEBS LETT., 296, (1992), 263-266”. The substrate: MOCAc-Pro-Leu-Gly-Leu-A2Pr(DNP)-Ala-Arg-NH2 was purchased from Peptide Institute, Inc., Osaka, Japan. The measurement of the inhibitory activities (IC50) was carried out by the following four methods; • (A) Reaction with substrate, enzyme (MMPs) and inhibitor • (B) Reaction with substrate and inhibitor, without enzyme • (C) Reaction with substrate and enzyme (MMPs), without inhibitor • (D) Reaction with substrate only IC50 values were calculated by using the following formula and each fluorescence values of above four methods (A to D).
(§3) The value of inhibitory activity against MMP-2, MMP-8, MMP-9, MMP-12, and MMP-13 measured by above mentioned methods are shown in Table 36, 37, 38, 39, and 40 respectively.

MMP-12 = biological target: T2, MMP-12 (Homo sapiens, UniProt P39900); assay: Assay for inhibitory activities on MMPs (fluorogenic MOCAc peptide substrate): MMP-12; conditions: catalytic domain 100Phe-263Gly
T2 construct: In regard to MMP-12, catalytic domain(^100Phe˜^263Gly) was amplified with RT-PCR; His-tag; enterokinase digestion-site; made in house
Description: as §1, with “MMP-12,” for “MMP-13, mRNA was prepared from carcinoma cell SW1353 derived from human cartilage stimulate by IL-1, TNF and”, “domain(^100Phe˜^263Gly)” for “domain (^104Tyr˜^267Gly)”, “RT-PCR from Human Placenta Total RNA.” for “RT-PCR.”, “MMP-12” for “MMP-13”, “dialysis” for “dialyze”, “MMP-12.” for “MMP-13.”
as §2, §3

MMP-8 = biological target: T3, MMP-8 (Homo sapiens, UniProt P22894); assay: Assay for inhibitory activities on MMPs (fluorogenic MOCAc peptide substrate): MMP-8; conditions: catalytic domain 99Phe-262Gly
T3 construct: In regard to MMP-8, catalytic domain (^99Phe˜^262Gly) was amplified with PCR; His-tag; enterokinase digestion-site; made in house
Text: In regard to MMP-8, catalytic domain (^99Phe˜^262Gly) was amplified with PCR using commercial available Human Bone Marrow cDNA. This was cloned in Escherichia. coli expression vector pTrc99AHE inserted with His-tag sequence and enterokinase digestion-site, induced and expressed by IPTG (Isdpropyl-β-D-thiogalactopyranoside) and expressed in a insoluble fraction (Thau F. Ho, M. Walid Qoronfleh, Robert C. Wahl, Trica A. Pulvino, Karen J. Vavra, Joe Falvo, Tracey M. Banks, Patricia G. Brake and Richard B. Ciccarelli: Gene expression, purification and characterization of recombinant human neutrophil collagenase. Gene 146, (1994) 297-301, Prepared by the a improved method of this material). Isolation of MMP-8 from an insoluble fraction was carried out by dissolving in modifier (6M urea) by a usual method and purification with metal chelate chromatography. And then removing modifier (6M urea) with dialysis and refolding of the enzyme spontaneously gave activated MMP-8.
as §2, §3

T3 sequence (P22894 99-262): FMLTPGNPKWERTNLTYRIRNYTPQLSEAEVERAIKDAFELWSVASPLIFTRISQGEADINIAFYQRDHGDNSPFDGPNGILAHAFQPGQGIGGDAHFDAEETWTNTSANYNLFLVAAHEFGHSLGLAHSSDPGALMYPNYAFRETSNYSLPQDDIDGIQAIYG
T2 sequence (P39900 100-263): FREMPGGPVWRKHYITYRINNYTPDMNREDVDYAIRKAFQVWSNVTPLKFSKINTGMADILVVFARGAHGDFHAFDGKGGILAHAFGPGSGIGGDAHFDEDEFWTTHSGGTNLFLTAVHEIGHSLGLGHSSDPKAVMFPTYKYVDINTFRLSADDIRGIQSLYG

| SMILES | IC50 (MMP-13) [µM] | IC50 (MMP-12) [µM] | IC50 (MMP-8) [µM] |
| --- | --- | --- | --- |
| CCCc1ccc(-c2cc(-c3ccc(S(=O)(=O)N[C@H](CC(=O)O)C(=O)O)cc3)no2)cc1 [Example C-114] | 0.000223 | 0.000578 |  |
| CC(C)c1ccc(-c2cc(-c3ccc(S(=O)(=O)N[C@H](Cc4c[nH]c5ccccc45)C(=O)O)cc3)on2)cc1 [Example A-111] | 0.000465 |  |  |
| COc1ccc(-c2cc(-c3ccc(S(=O)(=O)N[C@H](C(=O)O)C(C)C)cc3)no2)cc1 [Example C-19] |  | 0.000447 | 0.00397 |
| CSCC[C@@H](NS(=O)(=O)c1ccc(-c2cc(-c3ccc(OC(F)(F)F)cc3)no2)cc1)C(=O)O [Example A-108] | 0.000635 | 0.000764 |  |
| Cc1ccc(-c2cc(-c3ccc(S(=O)(=O)N[C@@H](CC(C)C)C(=O)O)cc3)no2)s1 [Example C-75] |  | 0.000677 | 0.00198 |
| CCc1ccc(-c2cc(-c3ccc(S(=O)(=O)N[C@H](C(=O)O)C(C)CC)cc3)no2)s1 (stereo partly shown) [Example C-99] | 0.000971 | 0.000649 |  |
| CC(C)[C@@H](NS(=O)(=O)c1ccc(-c2cc(-c3ccc4c(c3)OCO4)on2)cc1)C(=O)O [Example C-44] |  | 0.000649 | 0.00359 |
| CC(C)[C@H](NS(=O)(=O)c1ccc(-c2cc(-c3ccc(Cl)c(Cl)c3)on2)cc1)C(=O)O [Example C-41] |  | 0.000294 | 0.00379 |
| CCc1ccc(-c2cc(-c3ccc(S(=O)(=O)N[C@@H](C(=O)O)C(C)C)cc3)on2)cc1 [Example A-26] | 0.000943 |  |  |
| COc1ccc(-c2cc(-c3ccc(S(=O)(=O)N[C@@H](C(=O)O)C(C)C)cc3)on2)cc1Cl [Example A-56] |  | 0.000898 | 0.00397 |
| CC(C)C[C@H](NS(=O)(=O)c1ccc(-c2cc(-c3ccc4c(c3)OCO4)on2)cc1)C(=O)O [Example C-86] |  | 0.000545 | 0.00478 |
| Cc1ccc(-c2cc(-c3ccc(S(=O)(=O)N[C@H](C(=O)O)C(C)C)cc3)no2)s1 [Example C-30] |  | 0.000758 | 0.00124 |
| CC(C)C[C@@H](NS(=O)(=O)c1ccc(-c2cc(-c3ccc(C(C)C)cc3)on2)cc1)C(=O)O [Example C-59] | 0.000889 |  |  |
| CC(C)[C@@H](NS(=O)(=O)c1ccc(-c2cc(-c3ccc(C(F)(F)F)cc3)on2)cc1)C(=O)O [Example C-27] | 0.000758 | 0.000316 |  |
| CC(C)c1ccc(-c2cc(-c3ccc(S(=O)(=O)N[C@H](C(=O)O)C(C)C)cc3)no2)cc1 [Example C-16] | 0.000403 | 0.000287 |  |
| CC(C)C[C@H](NS(=O)(=O)c1ccc(-c2cc(-c3ccc(C(C)C)cc3)on2)cc1)C(=O)O [Example C-60] | 0.000919 | 0.000335 |  |
| COc1ccc(-c2cc(-c3ccc(S(=O)(=O)N[C@@H](C(=O)O)C(C)C)cc3)no2)cc1 [Example C-18] | 0.000853 | 0.000384 | 0.00419 |
| CC(C)[C@H](NS(=O)(=O)c1ccc(-c2cc(-c3ccc4c(c3)OCO4)on2)cc1)C(=O)O [Example C-45] |  | 0.000641 | 0.00366 |
| CC(C)C[C@H](NS(=O)(=O)c1ccc(-c2cc(-c3ccc(Cl)s3)on2)cc1)C(=O)O [Example C-79] |  | 0.0008 | 0.00286 |
| CSCC[C@@H](NS(=O)(=O)c1ccc(-c2cc(-c3ccc(C(C)C)cc3)no2)cc1)C(=O)O [Example A-107] | 0.000658 |  |  |
| CCC(C)[C@H](NS(=O)(=O)c1ccc(-c2cc(-c3ccc(C)s3)on2)cc1)C(=O)O (stereo partly shown) [Example C-98] |  | 0.000629 | 0.00103 |
| CC(C)[C@H](NS(=O)(=O)c1ccc(-c2cc(-c3ccc(Cl)s3)on2)cc1)C(=O)O [Example C-34] |  | 0.000866 | 0.00177 |
| CSc1ccc(-c2cc(-c3ccc(S(=O)(=O)N[C@H](C(=O)O)C(C)C)cc3)no2)cc1 [Example C-11] | 0.000739 | 0.000289 |  |
| Cc1ccc(-c2cc(-c3ccc(S(=O)(=O)N[C@H](CC(C)C)C(=O)O)cc3)no2)s1 [Example C-74] |  |  | 0.00416 |
| O=C(O)C[C@@H](NS(=O)(=O)c1ccc(-c2cc(-c3ccc(C(F)(F)F)cc3)on2)cc1)C(=O)O [Example C-115] | 0.000643 |  |  |
| COc1ccc(-c2cc(-c3ccc(S(=O)(=O)N[C@@H](CC(C)C)C(=O)O)cc3)on2)cc1F [Example A-79] |  | 0.000622 | 0.00111 |
| CCc1ccc(-c2cc(-c3ccc(S(=O)(=O)N[C@H](CC(=O)O)C(=O)O)cc3)no2)cc1 [Example C-113] | 0.000733 |  |  |

Second part, the molecule after the results:

| IC50 (MMP-13) [µM] | IC50 (MMP-12) [µM] | IC50 (MMP-8) [µM] | SMILES |
| --- | --- | --- | --- |
| 0.000757 | 0.000201 |  | CCc1ccc(-c2cc(-c3ccc(S(=O)(=O)N[C@H](C(=O)O)C(C)C)cc3)no2)cc1 [Example C-13] |
| 0.000702 | 0.000172 |  | CCc1ccc(-c2cc(-c3ccc(S(=O)(=O)N[C@H](C(=O)O)C(C)CC)cc3)no2)cc1 (stereo partly shown) [Example C-95] |
|  | 0.000264 | 0.00107 | CC(C)[C@@H](NS(=O)(=O)c1ccc(-c2cc(-c3ccc4c(c3)CCO4)on2)cc1)C(=O)O [Example C-47] |
| 0.000578 | 0.000239 | 0.00421 | CCCCc1ccc(-c2cc(-c3ccc(S(=O)(=O)N[C@@H](C(=O)O)C(C)C)cc3)no2)cc1 [Example C-17] |
|  | 0.000184 | 0.00108 | CC(C)C[C@H](NS(=O)(=O)c1ccc(-c2cc(-c3ccc4c(c3)CCO4)on2)cc1)C(=O)O [Example C-91] |
| 0.000578 | 0.000239 | 0.00421 | CCC(C)[C@H](NS(=O)(=O)c1ccc(-c2cc(-c3ccc(SC)cc3)on2)cc1)C(=O)O (stereo partly shown) [Example C-97] |
| 0.000836 | 0.000266 | 0.00263 | COc1ccc(-c2cc(-c3ccc(S(=O)(=O)N[C@@H](C(=O)O)C(C)C)cc3)no2)cc1F [Example C-51] |
|  | 0.000281 | 0.00489 | CCC(C)[C@H](NS(=O)(=O)c1ccc(-c2cc(-c3ccc(Cl)c(Cl)c3)on2)cc1)C(=O)O (stereo partly shown) [Example C-104] |
| 0.000837 | 0.00014 |  | CCC(C)[C@H](NS(=O)(=O)c1ccc(-c2cc(-c3ccc(OC(F)(F)F)cc3)on2)cc1)C(=O)O (stereo partly shown) [Example C-102] |
|  | 0.000172 | 0.00433 | CC(C)[C@H](NS(=O)(=O)c1ccc(-c2cc(-c3ccc(Cl)c(F)c3)on2)cc1)C(=O)O [Example C-37] |
|  | 0.0002 | 0.000892 | CC(C)[C@H](NS(=O)(=O)c1ccc(-c2cc(-c3ccc4c(c3)CCO4)on2)cc1)C(=O)O [Example C-48] |
|  | 0.000184 | 0.00437 | CC(C)C[C@H](NS(=O)(=O)c1ccc(-c2cc(-c3ccc(Cl)c(Cl)c3)on2)cc1)C(=O)O [Example C-88] |
| 0.000884 | 0.000148 |  | CC(C)[C@H](NS(=O)(=O)c1ccc(-c2cc(-c3ccc(OC(F)(F)F)cc3)on2)cc1)C(=O)O [Example C-26] |
|  | 0.000228 | 0.00229 | CCC(C)[C@H](NS(=O)(=O)c1ccc(-c2cc(-c3ccc(OC)cc3)on2)cc1)C(=O)O (stereo partly shown) [Example C-96] |
